US10085983B2, “Azabicyclo derivatives, process for preparation thereof and medical use thereof” (Shanghai Haiyan Pharmaceutical Technology Co., Ltd., priority 2014, dated 2018)

What was measured:
A431 cells = experiment: Cell growth inhibition by MTT assay, A431 cells; assay type: cell-based
Procedure: (§1) The steps of the MTT assay were carried out using methods well known to those skilled in the art, and all the reagents used in the methods are commercially available.
(§2) After the first wash, another 1.5 mL of trypsin/EDTA was added to digest the adherent cells until the cells detached. Then 3.5 mL of the culture medium was added to terminate the digestion. The digested cell suspension was transferred to a 15 mL centrifuge tube and centrifuged at 1300 rpm for 3 minutes. The supernatant was discarded and the cells were resuspended in fresh medium. The cells were then counted and diluted to the following concentrations: 27,800 cells per milliliter of H1975 cells, 33,300 cells per milliliter of A431 cells and NIH3T3 cells (purchased from the Cell Bank of the Type Culture Collection Committee, Chinese Academy of Sciences).
(§3) After the drug was added, the cells were incubated in an incubator for 72 hours. 10 μL of 5 mg/ml MTT (Sigma, M5655) solution was added to each well. The 96-well plate was then incubated in a 37° C. and 5% CO2 incubator for 4 h.
(§4) The plate was then centrifuged at 2000 rpm for 5 min. After the supernatant was removed, 150 μl of DMSO was added to each well and the plate was shaken in a shaker until all crystal violet was dissolved.

H1975 cells = experiment: Cell growth inhibition by MTT assay, H1975 cells; assay type: cell-based; settings: for IC50: MTT assay, 72 hours; for Selective inhibitory activity against cell growth [IC50 (A431 cell)/IC50 (H1975 cell)]: ratio of MTT IC50 values;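 on all read-outs here: MTT read-out in 96-well plates after 72 h compound exposure of H1975 and A431 cells, with selectivity given as the A431 IC50 divided by the H1975 IC50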
Procedure: as §1, §2, §3, §4

wild-type EGFR kinase = wild-type EGFR kinase (Homo sapiens (Human), UniProt P00533); settings: read-out: EGFR WT (IC50/μM); z'-lyte assay, 10 μM ATP
wild-type EGFR kinase, sequence (P00533 25-1210): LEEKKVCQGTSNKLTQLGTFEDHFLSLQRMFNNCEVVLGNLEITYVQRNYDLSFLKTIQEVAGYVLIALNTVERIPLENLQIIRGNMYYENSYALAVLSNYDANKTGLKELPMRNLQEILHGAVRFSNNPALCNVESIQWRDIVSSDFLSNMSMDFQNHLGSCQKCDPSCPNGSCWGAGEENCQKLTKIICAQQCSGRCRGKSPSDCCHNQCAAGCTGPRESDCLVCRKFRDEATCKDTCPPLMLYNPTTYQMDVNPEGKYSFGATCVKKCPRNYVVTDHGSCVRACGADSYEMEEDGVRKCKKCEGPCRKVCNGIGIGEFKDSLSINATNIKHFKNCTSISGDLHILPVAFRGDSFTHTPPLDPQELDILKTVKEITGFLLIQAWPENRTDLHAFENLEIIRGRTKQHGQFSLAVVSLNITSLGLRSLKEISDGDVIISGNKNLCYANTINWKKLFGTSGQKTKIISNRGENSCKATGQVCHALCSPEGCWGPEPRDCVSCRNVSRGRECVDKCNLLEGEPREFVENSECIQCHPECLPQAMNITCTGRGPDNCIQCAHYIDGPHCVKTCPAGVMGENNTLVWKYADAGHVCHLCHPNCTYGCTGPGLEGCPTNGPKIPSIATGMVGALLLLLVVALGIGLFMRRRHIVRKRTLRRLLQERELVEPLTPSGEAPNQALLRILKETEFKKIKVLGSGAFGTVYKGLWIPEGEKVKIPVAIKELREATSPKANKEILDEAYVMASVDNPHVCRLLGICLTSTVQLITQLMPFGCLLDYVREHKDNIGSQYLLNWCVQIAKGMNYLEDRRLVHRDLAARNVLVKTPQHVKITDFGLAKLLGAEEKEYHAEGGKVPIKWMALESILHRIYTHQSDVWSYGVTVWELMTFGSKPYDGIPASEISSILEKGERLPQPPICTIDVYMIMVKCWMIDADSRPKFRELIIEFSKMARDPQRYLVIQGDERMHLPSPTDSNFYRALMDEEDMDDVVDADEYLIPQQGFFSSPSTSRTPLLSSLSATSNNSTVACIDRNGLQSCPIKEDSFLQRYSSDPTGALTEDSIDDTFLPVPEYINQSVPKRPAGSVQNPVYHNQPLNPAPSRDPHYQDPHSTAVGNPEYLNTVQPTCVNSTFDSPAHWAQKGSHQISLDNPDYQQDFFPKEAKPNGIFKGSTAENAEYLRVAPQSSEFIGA
Procedure: All reagents used in the following z′-lyte assay were purchased from Invitrogen.
The working concentrations of each component in 10 μL wild-type EGFR kinase reaction system were: 10 μM ATP, 0.8 ng/μL wild-type EGFR kinase, 2 μM Tyr04 substrate (Invitrogen, PV3193). The concentration of DMSO after addition of the compound to be tested was 2 vol %.
10 mM drug stock solution was dissolved at room temperature and gradiently diluted to a final concentration of 4-0.002 μM with 8 vol % DMSO solution. […] Then 2.5 μl of ATP was added to initiate the reaction. Wherein, ATP was replaced by the reaction buffer in well C1, no drug was added to well C2, and the phosphorylated substrate was added to well C3 according to the instructions. The mixture was allowed to react at 25° C. in a shaker in dark for 60 min. 5 μL of Development Reagent B (Invitrogen, diluted with TR-FRET dilution buffer) was added and allowed to react at room temperature in the shaker for 60 minutes.
The inhibition rate was calculated according to the following method (refer to the instructions of Invitrogen, PV3193):
1. ER=Coumarin Emission (450 nm)/Fluorescein Emission (520 nm)
The half-inhibitory concentration IC50 was obtained through fitting calculation by using XLFIT 5.0 software (IDBS, UK).

[1] = biological target: EGFR phosphorylation in H1975 (EGFR T790M mutant) cells (Homo sapiens (Human), UniProt P00533, L858R/T790M); experiment: Inhibition of EGFR phosphorylation in H1975 cells (ELISA); assay type: cell-based; settings: for IC50: ELISA of EGFR phosphorylation, 1 h compound treatment, read-out: H1975 cell (IC50/μM); for Selective inhibitory activity against targets at the cell level [IC50 (A431 cell)/IC50 (H1975 cell)]: ratio of ELISA IC50 values;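 on all read-outs here: Phospho-EGFR in cell lysates measured by capture-antibody ELISA with TMB substrate after compound exposure, cells given DMSO alone (0.5% final) serving as control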
EGFR phosphorylation in H1975 (EGFR T790M mutant) cells, sequence (P00533 25-1210 T790M/L858R): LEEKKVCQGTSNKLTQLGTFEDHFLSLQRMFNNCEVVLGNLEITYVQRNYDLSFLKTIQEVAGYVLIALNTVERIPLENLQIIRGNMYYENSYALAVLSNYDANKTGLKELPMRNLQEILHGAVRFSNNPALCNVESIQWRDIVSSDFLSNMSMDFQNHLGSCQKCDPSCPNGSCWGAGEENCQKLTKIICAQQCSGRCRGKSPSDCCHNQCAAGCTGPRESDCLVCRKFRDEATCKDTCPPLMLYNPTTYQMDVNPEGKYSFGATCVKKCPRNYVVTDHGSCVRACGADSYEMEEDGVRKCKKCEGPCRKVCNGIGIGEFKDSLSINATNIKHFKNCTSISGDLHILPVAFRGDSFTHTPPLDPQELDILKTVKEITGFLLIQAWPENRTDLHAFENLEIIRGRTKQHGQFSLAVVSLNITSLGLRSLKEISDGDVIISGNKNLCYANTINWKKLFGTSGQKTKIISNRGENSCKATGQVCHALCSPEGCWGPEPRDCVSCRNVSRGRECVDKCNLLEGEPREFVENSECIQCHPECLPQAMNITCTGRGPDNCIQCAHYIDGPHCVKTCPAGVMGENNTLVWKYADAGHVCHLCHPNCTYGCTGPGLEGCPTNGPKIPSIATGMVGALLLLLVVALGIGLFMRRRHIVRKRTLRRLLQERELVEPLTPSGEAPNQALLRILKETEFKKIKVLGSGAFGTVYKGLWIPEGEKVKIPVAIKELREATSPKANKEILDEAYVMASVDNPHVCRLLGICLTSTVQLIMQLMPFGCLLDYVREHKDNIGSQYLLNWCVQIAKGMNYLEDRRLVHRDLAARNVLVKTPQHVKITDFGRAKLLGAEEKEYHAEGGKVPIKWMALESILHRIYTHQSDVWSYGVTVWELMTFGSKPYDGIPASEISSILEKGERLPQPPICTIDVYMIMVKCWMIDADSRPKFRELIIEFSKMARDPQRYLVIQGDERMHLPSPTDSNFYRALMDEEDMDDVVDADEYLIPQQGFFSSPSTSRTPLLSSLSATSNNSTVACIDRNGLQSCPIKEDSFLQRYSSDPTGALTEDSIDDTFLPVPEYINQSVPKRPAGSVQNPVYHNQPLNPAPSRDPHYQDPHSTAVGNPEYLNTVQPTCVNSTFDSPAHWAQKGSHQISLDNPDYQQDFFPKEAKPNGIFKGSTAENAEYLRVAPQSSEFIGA
Procedure: (§5) In the following methods, the reagents used, the preparation methods of solutions, the cell treatment and the preparation steps of the lysis solution, as well as the ELISA assay steps, were carried out according to the instructions of R&D DYC3570, R&D DYC1095E and R&D DYC1095BE.
(§6) Cell lysis solution: Cell lysis buffer+10 μg/mL Aprotinin (Sigma)+10 μg/mL Leupeptin (Sigma), prepared on site.
(§7) Wash buffer: PBS buffer containing 0.05% (v/v) Tween-20.
(§8) Blocking solution: PBS buffer containing 1% (w/v) BSA.
(1) H1975 cells (purchased from the Cell Bank of the Type Culture Collection Committee, Chinese Academy of Sciences) were seeded into 96-well plates at a density of 1×10^4/well, each cell containing 90 μl of RPMI1640 medium with 10% (V/V) FBS, and cultured overnight at 37° C. in 5% (v/v) CO2.
(2) The compounds to be tested were diluted in accordance with the drug dilution method in the MTT assay. 10 μL of the diluted compound or diluted DMSO was added to the corresponding wells of the cell culture plate, and the final concentration of DMSO was 0.5% (V/V). The plate was cultured at 37° C. in 5% (v/v) CO2 for 1 h. The cell culture system treated with DMSO alone was used as cell control.
(3) The medium was removed and then 100 μL of cell lysis solution was added. The plate was sealed and placed in a refrigerator at −80° C. overnight. The cell lysis buffer was used as blank control.
The assay was conducted according to the instructions given in R&D DYC1095E or R&D DYC1095BE.
(1) R&D capture antibody ((DYC1095BE or DYC1095E)) was diluted with PBS in the proportion of 1:180.
(§9) (2) The plate was washed 3 times with 360 μL of the wash buffer.
(3) 300 μL of the blocking solution was added and the plate was incubated at 25° C. with shaking for 2 hours.
(4) The plate was washed 3 times with 360 μL of the wash buffer.
(§10) (5) 40 μL of cell lysis buffer and 60 μL of cell lysis solution were added and the plate was incubated at 25° C. with shaking for 2 hours.
(§11) (6) The plate was washed 3 times with 360 μL of the wash buffer.
(§12) (7) The detection antibody was diluted with the detection antibody diluent in the proportion specified in the instructions of the kit. 100 μL of the diluted antibody was added to each well and the plate was incubated at 25° C. with shaking in dark for 1 h.
(8) The plate was washed 3 times with 360 μL of wash buffer.
(9) A reagent and B reagent in the TMB substrate (R&D DY999) were mixed in 1:1. 100 μL of the mixture was added to each well and incubated in dark at 25° C. with shaking for 20 min.
(§13) (10) 50 μL of 2N H2SO4 was added to each well.
(11) The plate was read with a microplate reader (Thermo Multiskan K3). OD 450 values and OD570 values of the cell control, blank control, and drug treatment wells were measured. ODcell, ODblank and ODdrug treatment were obtained by subtracting the corresponding OD570 value from the OD 450 value of the same well.
2.3 Data Analysis Inhibition rate (%)=100%×(ODcell−ODdrug treatment)/(ODcell−ODblank)

[2] = biological target: EGFR phosphorylation in A431 (EGFR wild-type) cells (Homo sapiens (Human), UniProt P00533); experiment: Inhibition of EGFR phosphorylation in A431 cells (ELISA); assay type: cell-based; settings: 1 h compound treatment, EGF stimulation, read-out: A431 cell (IC50/μM)
EGFR phosphorylation in A431 (EGFR wild-type) cells, sequence (P00533 25-1210): as the sequence (P00533 25-1210) above
Procedure: as §5
I. Reagents and Solutions
as §6, §7, §8
3.1 A431 Cell Treatment and Testing Procedures
(1) A431 cells (purchased from the Cell Bank of the Type Culture Collection Committee, Chinese Academy of Sciences) were seeded in 96-well plates at a density of 1×10^4/well in 90 μl of DMEM medium containing 10% FBS and cultured at 37° C. in 5% CO2 overnight.
(2) The A431 cell culture medium was replaced with 90 μl of serum-free DMEM medium and the plate was cultured overnight.
(3) The compound to be tested was diluted according to the drug dilution method in MTT assay. 10 μL of the diluted compound or diluted DMSO was added to the corresponding wells of the cell culture plate, and the final concentration of DMSO was 0.5%. The plate was cultured at 37° C. in 5% CO2 for 1 hour. […] The cells without EGF and drug treatment were used as cell control, and the cells treated with EGF without drugs were used as EGF control.
(4) The medium was removed and then 100 μL of the cell lysis solution was added. The plate was sealed and placed in a refrigerator at −80° C. overnight.
The assay was conducted according to the instructions given in R&D DYC3570E.
(1) R&D capture antibody (DYC3570E) was diluted with PBS in the proportion of 1:180.
as §9
(3) 200 μL of the blocking solution was added and the plate was incubated at 25° C. with shaking for 2 hours.
(4) The plate was washed 3 times with 360 μL of wash buffer.
as §10, §11, §12
(8) The plate was washed 3 times with 360 μL of the wash buffer.
(9) A reagent and B reagent in TMB substrate (R&D DY999) were mixed in 1:1. 100 μL of the mixture was added to each well and incubated in dark at 25° C. with shaking for 20 min.
as §13
(11) The plate was read with a microplate reader (Thermo Multiskan K3). OD 450 values and OD570 values of the cell control, blank control, and drug treatment wells were measured. ODEGF, ODdrug and ODcell were obtained by subtracting the corresponding OD570 value from the OD 450 value of the same well.
3.3 Data Analysis Inhibition rate (%)=100%×(ODEGF−ODdrug)/(ODEGF−ODcell)

[3] = biological target: T790M/L858R double mutant EGFR kinase (Homo sapiens (Human), UniProt P00533, L858R/T790M); experiment: z'-lyte assay of inhibitory activity on T790M/L858R double mutant EGFR kinase; assay type: biochemical; settings: for Selective inhibitory activity against enzymes [IC50 (EGFR WT)/IC50 (T790M/L858R)]: ratio of enzyme IC50 values; for IC50: z'-lyte assay, 25 μM ATP
T790M/L858R double mutant EGFR kinase, sequence (P00533 25-1210 T790M/L858R): as the sequence (P00533 25-1210 T790M/L858R) above

NIH3T3 cells = experiment: Toxicity test on NIH3T3 cells by MTT assay; assay type: cell-based
Procedure: as §1, §2, §3, §4

IC50 (A431 cells; Homo sapiens, A-431, 72 hours) [µM]	IC50 (H1975 cells; Homo sapiens, NCI-H1975) [µM]	SMILES	IC50 (A431 cells; 72 hours) [µM]	IC50 (H1975 cells) [µM]	Selective inhibitory activity against cell growth [IC50 (A431 cell)/IC50 (H1975 cell)] (H1975 cells)	IC50 (wild-type EGFR kinase) [µM]	IC50 [1] [µM]	Selective inhibitory activity against targets at the cell level [IC50 (A431 cell)/IC50 (H1975 cell)] [1]	IC50 [2] [µM]	Selective inhibitory activity against enzymes [IC50 (EGFR WT)/IC50 (T790M/L858R)] [3]	IC50 [3] [µM]	IC50 (NIH3T3 cells; 72 hours) [µM]	IC50 (NIH3T3 cells; Mus musculus, NIH3T3, 72 hours) [µM]
–	–	C=CC(=O)Nc1cc(Nc2ncc3ccc(-c4ccn(C)c4)n3n2)c(OC)cc1N(C)CCN(C)C [Compound J-12, N-(2-((2-(dimethylamino)ethyl)(methyl)amino)-4-methoxy-5-(7-(1-methyl-1H-pyrrol-3-yl)pyrrolo[1,2-f][1,2,4]triazin-2-ylamino)phenyl)acrylamide]	0.332	0.009	36.9	0.008	0.015	1.5	0.023	4.2	0.0019	4.73	–
–	–	C=CC(=O)Nc1cc(Nc2ncc3ccc(-c4cnc5ccccc5c4)n3n2)c(OC)cc1N(C)CCN(C)C [Compound J-10, N-(2-((2-(dimethylamino)ethyl)(methyl)amino)-4-methoxy-5-(7-(quinolin-3-yl)pyrrolo[1,2-f][1,2,4]triazin-2-ylamino)phenyl)acrylamide]	0.147	0.009	16.3	0.003	–	–	–	3	0.001	3.27	–
–	–	C=CC(=O)Nc1cc(Nc2ncc3c(C)cc(-c4cnn(C)c4)n3n2)c(OC)cc1N1CCC(N(C)C)CC1 [Compound J-21, N-(2-(4-(dimethylamino)piperidin-1-yl)-4-methoxy-5-(5-methyl-7-(1-methyl-1H-pyrazol-4-yl)pyrrolo[1,2-F][1,2,4]triazin-2-ylamino)phenyl)acrylamide]	–	–	–	> 1	–	–	–	3.4	0.294	–	–
2.95	0.424	C=CC(=O)Nc1cc(Nc2cn3c(-c4cccnc4)cnc3cn2)c(OC)cc1N(C)CCN(C)C [Compound J-17, N-(2-((2-(dimethylamino)ethyl)(methyl)amino)-4-methoxy-5-(3(pyridin-3-yl)imidazo[1,2-a]pyrazin-6-ylamino)phenyl)acrylamide]	–	–	7	–	0.734	1.6	1.16	–	–	–	> 10
–	–	C=CC(=O)Nc1cc(Nc2ncc3ccc(C)n3n2)c(OC)cc1N1CCC(N(C)C)CC1 [Compound J-14, N-(2-(4-(dimethylamino)piperidin-1-yl)-4-methoxy-5-(7-methylpyrrolo[1,2-f][1,2,4]triazin-2-ylamino)phenyl)acrylamide]	3.56	0.126	–	–	–	–	–	–	–	7.77	–
–	–	C=CC(=O)Nc1cc(Nc2ncc3ccc(C4CC4)n3n2)c(OC)cc1N1CCC(N(C)C)CC1 [Compound J-15, N-(5(7-cyclopropylpyrrolo[1,2-f][1,2,4]triazin-2-ylamino)-2-(4-(dimethylamino)piperidin-1-yl)-4-methoxyphenyl)acrylamide]	–	–	–	> 1	–	–	–	3.8	0.262	–	–
–	–	C=CC(=O)Nc1cc(Nc2ncc3ccc(-c4cnn(C)c4)n3n2)c(OC)cc1N1CCN(C)CC1 [Compound J-4, N-(4-methoxy-5-(7-(1-methyl-1H-pyrazol-4-yl)pyrrolo[1,2-f][1,2,4]triazin-2-ylamino)-2-(4-methyl-1-yl)phenyl)acrylamide]	0.461	0.014	32.9	0.035	0.004	450	1.8	17.5	0.002	3.65	–
–	–	C=CC(=O)Nc1cc(Nc2ncc3ccc(-c4cnn(C)c4)n3n2)c(OC)cc1OCCN(C)C [Compound J-3, N-(2-(2-(dimethylamino)ethoxyl)-4-methoxy-5-(7-(1-methyl-1H-pyrazol-4-yl)pyrrolo[1,2-f][1,2,4]triazin-2-ylamino)phenyl)acrylamide]	0.168	0.008	21	0.01	0.001	93	0.093	10	0.001	3.91	–
–	–	C=CC(=O)Nc1cc(Nc2cn3c(-c4cnn(C)c4)cnc3cn2)c(OC)cc1N(C)CCN(C)C [Compound J-18, N-(2-((2-(dimethylamino)ethyl)(methyl)amino)-4-methoxy-5-(3(-methyl-1H-pyrazol-4-yl)imidazo[1,2-α]pyrazin-6-ylamino)phenyl)acrylamide]	1.56	0.251	6.2	–	–	–	–	–	–	> 10	–
–	–	C=CC(=O)Nc1cc(Nc2ncc3ccc(C4CC4)n3n2)c(OC)cc1N(C)CCN(C)C [Compound J-8, N-(5(7-cyclopropylpyrrolo[1,2-f][1,2,4]triazin-2-ylamino)-2-((2-(dimethylamino)ethyl)(methyl)amino)-4-methoxyphenyl)acrylamide]	3.19	0.097	32.9	0.112	0.163	3	0.495	56	0.002	–	–
–	–	C=CC(=O)Nc1cc(Nc2ncc3ccc(C4=CCCCC4)n3n2)c(OC)cc1N(C)CCN(C)C [Compound J-5, N-(5(7-cyclohexenyl-pyrrolo[1,2-f][1,2,4]triazin-2-ylamino)-2-((2-(dimethylamino)ethyl)(methyl)amino)-4-methoxyphenyl)acrylamide]	0.354	0.023	15.4	0.009	0.106	2	0.208	3	0.003	2.82	–
–	–	C=CC(=O)Nc1cc(Nc2ncc3ccc(C)n3n2)c(OC)cc1N(C)CCN(C)C [Compound J-9, N-(2-((2-(dimethylamino)ethyl)(methyl)amino)-4-methoxy-5-(7-methylpyrrolo[1,2-f][1,2,4]triazin-2-ylamino)phenyl)acrylamide]	1.65	0.125	13.2	0.105	0.186	5	0.92	6.6	0.016	> 10	–
–	–	C=CC(=O)Nc1cc(Nc2cn3c(-c4cnn(C)c4)cnc3cn2)c(OC)cc1N1CCC(N(C)C)CC1 [Compound J-19, N-(2-(4-(dimethylamino)piperidin-1-yl)-4-methoxy-5-(3(1-methyl-1H-pyrazol-4-yl)imidazo[1,2-α]pyrazinyl 6-amino)phenyl)acrylamide]	1.21	0.243	5	–	0.289	1.13	0.327	–	–	> 10	–
1.15	0.388	C=CC(=O)Nc1cc(Nc2cn3c(-c4ccn(C)c4)cnc3cn2)c(OC)cc1N(C)CCN(C)C [Compound J-16, N-(2-((2-(dimethylamino)ethyl)(methyl)amino)-4-methoxy-5-(3(1-methyl-1H-pyrrol-3-yl)imidazo[1,2-a]pyrazin-6-ylamino)phenyl)acrylamide]	–	–	3	–	0.171	1.2	0.211	–	–	–	> 10
–	–	C=CC(=O)Nc1cc(Nc2ncc3c(C)cc(-c4cnn(C)c4)n3n2)c(OC)cc1N(C)CCN(C)C [Compound J-20, N-(2-((2-(dimethylamino)ethyl)(methyl)amino)-4-methoxy-5-(5-methyl-7-(1-methyl-1H-pyrazol-4-yl)pyrrolo[1,2-F][1,2,4]triazin-2-ylamino)phenyl)acrylamide]	–	–	–	0.294	–	–	–	24.5	0.012	–	–
–	–	C=CC(=O)Nc1cc(Nc2ncc3ccc(-c4cnc5c(ccn5C)c4)n3n2)c(OC)cc1N(C)CCN(C)C [Compound J-7, N-(2-((2-(dimethylamino)ethyl)(methyl)amino)-4-methoxy-5-(7-(1-methyl-1H-pyrrolo[2,3-b]pyridin-5-yl)pyrrolo[1,2-f][1,2,4]triazin-2-ylamino)phenyl)acrylamide]	0.231	0.01	23.1	0.005	–	–	–	2.5	0.002	3.38	–

SMILES	IC50 (A431 cells; Homo sapiens, A-431, 72 hours) [µM]	IC50 (H1975 cells; Homo sapiens, NCI-H1975) [µM]	IC50 (A431 cells; 72 hours) [µM]	IC50 (H1975 cells) [µM]	Selective inhibitory activity against cell growth [IC50 (A431 cell)/IC50 (H1975 cell)] (H1975 cells)	IC50 (wild-type EGFR kinase) [µM]	IC50 [1] [µM]	Selective inhibitory activity against targets at the cell level [IC50 (A431 cell)/IC50 (H1975 cell)] [1]	IC50 [2] [µM]	Selective inhibitory activity against enzymes [IC50 (EGFR WT)/IC50 (T790M/L858R)] [3]	IC50 [3] [µM]	IC50 (NIH3T3 cells; 72 hours) [µM]	IC50 (NIH3T3 cells; Mus musculus, NIH3T3, 72 hours) [µM]
CN(C)C/C=C/C(=O)Nc1cc2c(Nc3ccc(F)c(Cl)c3)ncnc2cc1O[C@H]1CCOC1 [BIBW2992, alfatinib, reference compound]	–	0.088	–	–	–	–	–	–	–	–	–	–	2.75
